Measurements as given in ChEMBL document CHEMBL1147228, “Dammarane-type triterpenes from the Brazilian medicinal plant Cordia multispicata” (J Nat Prod, 2003).

Assay: Antiandrogenic activity assessed as inhibition of testosterone 5alpha reductase at 100 ug/mL
Parameters: scale not given: the % may be the effect or the level left

Structure (SMILES)	Activity [%]
COC(C)(C)C(O)C(O)/C=C(\C)[C@H]1CC[C@]2(C)[C@@H]1C[C@@H](O)[C@@H]1[C@]34CC[C@](O)(OC3)C(C)(C)[C@@H]4CC[C@]12C (stereo not given in full)	19
C/C(=C\C(O)C1OC1(C)C)[C@H]1CC[C@]2(C)[C@@H]1C[C@@H](O)[C@@H]1[C@]34CC[C@](O)(OC3)C(C)(C)[C@@H]4CC[C@]12C (stereo not given in full)	15.1
C/C(=C\C(O)C(O)C(C)(C)O)[C@H]1CC[C@]2(C)[C@@H]1C[C@@H](O)[C@@H]1[C@]34CC[C@](O)(OC3)C(C)(C)[C@@H]4CC[C@]12C (stereo not given in full)	-2.09
C/C(=C\C(O)C1OC1(C)C)[C@H]1CC[C@]2(C)[C@@H]1C[C@@H](O)[C@@H]1[C@@]3(C)CCC(=O)C(C)(C)[C@@H]3CC[C@]12C (stereo not given in full)	43.1
C=C(C)C(O)C(O)/C=C(\C)[C@H]1CC[C@]2(C)[C@@H]1C[C@@H](O)[C@@H]1[C@]34CC[C@](O)(OC3)C(C)(C)[C@@H]4CC[C@]12C (stereo not given in full)	18
